Experimental data from PMC9259769, “Biochemical characterization and peptide mass fingerprinting of two glutathione transferases from Biomphalaria alexandrina snails (Gastropoda: Planorbidae)” (Journal of Genetic Engineering & Biotechnology, 2022).
Read-outs that look alike come from different tables or passages of the source. One block for each compound: values may come before it.

How the values were obtained:
BaGST3 [1] = assay: Inhibition of GSH-CDNB-conjugating activity and type of inhibition; format: biochemical, Biomphalaria alexandrina; details: for IC50: GSH-CDNB-conjugating activity, standard assay conditions; for Type of inhibition / Vmax in the presence of inhibitor: CDNB as substrate; for Type of inhibition: inhibitor at less than I20; for Vmax in the presence of inhibitor: inhibitor at less than I20, without inhibitor 48.8
Description: (§1) One unit of transferase activity is defined as the amount of enzyme which catalyzes the formation of 1 μmol of thioether per min, and the specific activity is expressed as μmol/min/mg protein.
(§2) The IC50 values were determined according to Yalcin [18]. The IC50 values were determined by plotting percentage activity values versus log inhibitor concentrations.
(§3) The type of inhibition of BSP, hematin, and CB was also examined by studying the effect of constant concentration (less than IC20) of each inhibitor on the Km (CDNB) and Vmax of BaGST2 and BaGST3.

BaGST2 [2] = assay: as above; format: biochemical, Biomphalaria alexandrina; details: for IC50: GSH-CDNB-conjugating activity, standard assay conditions; for Type of inhibition / Vmax in the presence of inhibitor: CDNB as substrate; for Type of inhibition: inhibitor at less than I20; for Vmax in the presence of inhibitor: inhibitor at less than I20, without inhibitor 75.5
Description: as §1, §2, §3

BaGST3 [3] = assay: Substrate specificity (glutathione transferase and peroxidase assays); format: biochemical, Biomphalaria alexandrina
Description: as §1
(§4) Enzyme activity with various aromatic substrates, namely, bromosulfophthalein (BSP), 1, 2-dichloro-4-nitrobenzene (DCNB), p-nitrophenethyl-bromide, and ethacrynic acid (EA), was examined as described.
(§5) Substrate specificities of BaGST2 and BaGST3 toward several compounds were studied.

BaGST2 [4] = assay: as above; format: biochemical, Biomphalaria alexandrina
Description: as §1, §4, §5

BaGST3 [5] = assay: Kinetic studies with varied GSH and CDNB concentrations; format: biochemical, Biomphalaria alexandrina
Description: as §1

BaGST2 [6] = assay: as above; format: biochemical, Biomphalaria alexandrina; details: 25 °C, substrate varied (CDNB 0.01-1.5 mM, GSH 0.025-1.5 mM)
Description: as §1

[7] = molecular target: Biomphalaria alexandrina glutathione transferase BaGST3 (Biomphalaria alexandrina); assay: SEC; Sephadex G-75 column (90 x 1.4 cm), 20 mM Tris-HCl pH 8.0, 100 mM NaCl, 4 °C; calibrated with standard proteins; apparent MW about 45 kDa compared with the subunit MW of 23.6 kDa by SDS-PAGE

Compound: N[C@@H](CCC(=O)N[C@@H](CSCc1ccc(Br)cc1)C(=O)NCC(=O)O)C(=O)O [S-P-bromobenzyl-GSH]
IC50 (BaGST3 [1]): 34.9 µM | IC50 (BaGST2 [2]): 9.3 µM

Compound: O=[N+]([O-])c1ccc(Cl)c([N+](=O)[O-])c1 [CDNB, 1-chloro-2,4-dinitrobenzene]
Specific activity toward CDNB (BaGST3 [3]; BaGST3 after GSH-Sepharose, 346-fold purification): 45.2 μmol/min/mg protein | Specific activity toward CDNB (BaGST2 [4]; BaGST2 after GSH-Sepharose, 146-fold purification): 19.0 μmol/min/mg protein | Km (BaGST3 [5]; 25 °C, CDNB varied 0.01-1.5 mM, read-out: Km): 50 µM | Km (BaGST2 [6]): 3330 µM

IC50 (BaGST3 [1]): 19.5 µM | IC50 (BaGST2 [2]): 36.3 µM
Compound: CCCCCCSC[C@H](NC(=O)CC[C@H](N)C(=O)O)C(=O)NCC(=O)O [S–hexyl-GSH, S-hexyl-GSH]

Compound: C=CC1=C(C)c2cc3[n-]c(cc4[n-]c(cc5nc(cc1n2)C(C)=C5C=C)c(C)c4CCC(=O)O)c(CCC(=O)O)c3C.O.[Fe+2] [Hematin, hematin]
Type of inhibition (BaGST3 [1]): Noncompetitive | Vmax in the presence of inhibitor (BaGST3 [1]): 15.8 μmol/min/mg protein | IC50 (BaGST3 [1]): 0.46 µM | Type of inhibition (BaGST2 [2]): Mixed | Vmax in the presence of inhibitor (BaGST2 [2]): 13.7 μmol/min/mg protein | IC50 (BaGST2 [2]): 1.35 µM

Compound: CC(C)(OO)c1ccccc1 [CuOOH, cumene hydroperoxide]
Activity toward substrate (in words) (BaGST3 [3]; BaGST3): peroxidase activity | Substrate specificity (specific activity) (BaGST3 [3]; BaGST3, means ± SD, n ≥ 4): 1.40 ± 0.03 µmol/min/mg | Activity toward substrate (in words) (BaGST2 [4]; BaGST2): peroxidase activity | Substrate specificity (specific activity) (BaGST2 [4]; BaGST2, means ± SD, n ≥ 4): 0.60 ± 0.02 µmol/min/mg

IC50 (BaGST3 [1]): 0.58 µM | IC50 (BaGST2 [2]): 2.35 µM
Compound: Nc1c(S(=O)(=O)O)cc(Nc2ccc(Nc3nc(Cl)nc(Nc4ccccc4S(=O)(=O)O)n3)c(S(=O)(=O)O)c2)c2c1C(=O)c1ccccc1C2=O [CB, Cibacron Blue]
Type of inhibition (BaGST3 [1]): Competitive | Vmax in the presence of inhibitor (BaGST3 [1]): 48.8 μmol/min/mg protein | Type of inhibition (BaGST2 [2]): Competitive | Vmax in the presence of inhibitor (BaGST2 [2]): 75.5 μmol/min/mg protein

Compound: CCCCSCC(NC(=O)CCC(N)C(=O)O)C(=O)NCC(=O)O (stereo not drawn) [S-butyl-GSH]
IC50 (BaGST3 [1]): 51.2 µM | IC50 (BaGST2 [2]): 69.1 µM

Compound: O=C1OC(c2ccc(O)c(S(=O)(=O)O)c2)(c2ccc(O)c(S(=O)(=O)O)c2)c2c(Br)c(Br)c(Br)c(Br)c21 [BSP, bromosulfophthalein]
Activity toward substrate (in words) (BaGST3 [3]; BaGST3): did not show any detectable activity | Activity toward substrate (in words) (BaGST2 [4]; BaGST2): did not show any detectable activity | IC50 (BaGST3 [1]): 95 µM | Type of inhibition (BaGST2 [2]): Competitive | Vmax in the presence of inhibitor (BaGST2 [2]): 75.5 μmol/min/mg protein | IC50 (BaGST2 [2]): 80.4 µM

Km (BaGST3 [5]; read-out: Km (GSH), high GSH concentrations, non-Michaelian, GSH 0.5-5 mM): 610 µM | Km (BaGST3 [5]; read-out: Km (GSH), low GSH concentrations, non-Michaelian, GSH 0.025-0.5 mM): 150 µM | Km (BaGST2 [6]): 220 µM
Compound: N[C@@H](CCC(=O)N[C@@H](CS)C(=O)NCC(=O)O)C(=O)O [GSH, γ-L-glutamyl-L-cysteinyl-glycine]

Compound: O=[N+]([O-])c1ccc(Cl)c(Cl)c1 [DCNB, 1,2-dichloro-4-nitrobenzene]
Activity toward substrate (in words) (BaGST3 [3]; BaGST3): low activity | Substrate specificity (specific activity), DCNB × 10^3 (BaGST3 [3]; BaGST3, means ± SD, n ≥ 4): 10 ± 0.6 μmol/min/mg × 10^3 | Activity toward substrate (in words) (BaGST2 [4]; BaGST2): low activity | Substrate specificity (specific activity), DCNB × 10^3 (BaGST2 [4]; BaGST2, means ± SD, n ≥ 4): 30 ± 1.5 μmol/min/mg × 10^3

stoichiometry N [7]: 2
Compound: Biomphalaria alexandrina glutathione transferase BaGST3 (enzyme)

Compound: O=[N+]([O-])c1ccc(CCBr)cc1 [p-Nitro-phenethylbromide, p-nitrophenethyl-bromide]
Activity toward substrate (in words) (BaGST3 [3]; BaGST3): low activity | Substrate specificity (specific activity) (BaGST3 [3]; BaGST3, means ± SD, n ≥ 4): 6.00 ± 0.20 µmol/min/mg | Activity toward substrate (in words) (BaGST2 [4]; BaGST2): low activity | Substrate specificity (specific activity) (BaGST2 [4]; BaGST2, means ± SD, n ≥ 4): 2.70 ± 0.13 µmol/min/mg

Activity toward substrate (in words) (BaGST3 [3]; BaGST3): high activity | Substrate specificity (specific activity) (BaGST3 [3]; BaGST3, means ± SD, n ≥ 4): 2.60 ± 0.10 µmol/min/mg | Activity toward substrate (in words) (BaGST2 [4]; BaGST2): high activity | Substrate specificity (specific activity) (BaGST2 [4]; BaGST2, means ± SD, n ≥ 4): 3.80 ± 0.11 µmol/min/mg
Compound: C=C(CC)C(=O)c1ccc(OCC(=O)O)c(Cl)c1Cl [EA, ethacrynic acid]
